Here are results for two compounds from patent US20260364024A1, “A SCALABLE AND CONTINUOUS METHOD TO PREPARE SOLID DRUG NANOPARTICLES FOR OCULAR DISEASE THERAPY” (The Curators of the University of Missouri, priority 2023, published 2026).

Data set [1] is described as follows: Ex vivo cornea permeation (Franz diffusion cell). In kind it is in vitro ADME. Particulars: from BT/BH solution, within 4 h, 37 °C, rabbit cornea. The procedure:
After using dextran to confirm the intactness of cornea extracted from fresh rabbit eyes, that cornea was mounted between the donor chamber and receptor chamber of a Franz diffusion cell system. […] The set was incubated at 37 °C. At predetermined intervals up to 12 h, an aliquot of 100 μL was withdrawn from the receptor chamber and analyzed by LC-MS. An equal volume of fresh PBS was supplemented to the receptor chamber following each sampling. FITC-labeled Dextran was tested to confirm the intactness of the cornea, and the permeation of the FITC-labeled Dextran was quantified by measuring the fluorescence intensity of FITC (Emission: 525 nm, Excitation: 490 nm) using a microplate reader.

The nature of data set [2]: In vitro drug release by dialysis in PBS. To be noted: from BT/BH solution; within 4 h, PBS pH 7.4, 37 °C, sink condition. It is filed as physicochemical. As for the experimental part:
The tube was then immersed in 5 mL of PBS, and the set was incubated at 37 °C with shaking (100 rpm). At predetermined intervals, 100 μL of the release medium (PBS) was withdrawn and replaced with equal volume of fresh medium. […] These experiments were carried out in triplicate.
Because the BM/BX SDNs are composed of hydrophobic drugs, the release was expected to slow down in comparison to their hydrophilic counterparts BT and BH.

For data set [3] the following is noted: eye drops, salt form; background statement; cited from earlier work.

Molecules are shown by their SMILES. Structures can show the parent of a compound that is named as a salt.

In the case of `CC(C)NCC(O)COc1ccc(CCOCC2CC2)cc1` (stereo not drawn) [BH, betaxolol hydrochloride], in data set [1], the “hydrophilic counterpart penetrated across the cornea” value is on record as “less than 10%”. In addition, the BH released in data set [2] was over 70%. For the same compound, the bioavailability result in data set [3] is recorded as “less than 5%”.
Take `Brc1c(NC2=NCCN2)ccc2nccnc12.O=C(O)C(O)C(O)C(=O)O` [BT, brimonidine tartrate]: the “hydrophilic counterpart penetrated across the cornea” value in data set [1] is listed as “less than 10%”. For the same compound, the BT released entry in data set [2] is “more than 60%”. The bioavailability entry in data set [3] is reported as “less than 5%”.
